# Reference: patent US8071548B2, “Method of reducing injury to mammalian cells” (Nono, Inc., priority 2002, dated 2011)
# Assays:
# reactive oxygen species = assay: ROS production (DHR fluorescence); assay type: cell-based, mouse
# Protocol: The production of reactive oxygen species (ROS) was measured with DHR. In brief, DHR is oxidized to a fluorescent rhodamine-123 (Royall and Ischiropoulos, 1993), and the consequent rise in fluorescence may be used as an indicator of ROS production.
# ROS were measured as previously described (Tymianski et al., 1998; Aarts et al., 2003). In brief, cultures were pre-loaded for 30 min with 5 μM DHR and subjected to the experimental insult. DHR fluorescence was measured in a multiwell plate fluorescence scanner (Cytofluor II, PerSeptive Biosytems, Framingham, Mass., USA; 485 nm excitation, 530 emission). DHR fluorescence was normalized to baseline using the formula at (Ft−Fo)/F0; Where Ft=DHR fluorescence at time t, Fo=DHR fluorescence at time zero. DHR fluorescence images were also acquired using a microscope (465-495 nm excitation and 515-555 nm emission) as described above for TMRM.
# [1] = test system: mitochondrial membrane potential; conditions: 10 μM; 10 min
# [2] = test system: cortical neuronal cultures; assay: Sublethal stretch injury with or without NMDA, cell death in cortical cultures; assay type: cell-based; conditions: 200 μM
# Protocol: […]. In brief, cerebral cortices from 10 to 12 embryos were incubated for 10 min in 0.05% trypsin-EDTA, dissociated by trituration, and plated on flexible membranes coated with poly-L-ornithine in 6 well plates (Flexcell International Corporation, Hillsborough, N.C.) at a density of 3.25×10^6 cells per well. Plating medium consisted of DMEM supplemented with 10% heat-inactivated horse serum (Gibco) and (in mM) 2 glutamine, 25 glucose, and 26 bicarbonate. The cultures were maintained at 37° C. in a humidified 5% CO2 atmosphere. After 3 days in vitro, growth of non-neuronal cells was halted by a 48 h exposure to 10 μM FDU-solution (5 μM uridine, 5 μM (+)-5-fluor-2′-deoxyuridine). This produces cultures in which >85% of the cells are neurons, based on immunohistochemical staining for glial fibrillary associated protein (exclusive to astrocytes), and for the NMDAR1 subunit (not shown). The cultures were used for experiments after 12-14 days in vitro.
# The cultures, grown on silastic membranes as above, were placed in the Flexercell® FX-3000™ Strain Unit (Flexcell Int., Inc.), a computer-driven instrument that uses a vacuum pulse to deform the culture substrate. In all experiments, the cortical cultures were stretched to 130% of their original length for 1 s, inducing a sublethal injury as recently characterized by us (Arundine et al., 2003). The stretched neurons maintained cell membrane integrity, viability, and electrophysiological function.
# Cell death was determined by serial quantitative measurements of propidium iodide (PI) fluorescence using a multiwell plate fluorescence scanner (Cytofluor II, PerSeptive Biosytems, Framingham, Mass., USA) as described previously (Sattler et al., 1997; Sattler et al., 1998). In brief, the culture medium in each tissue culture well was replaced with control solution containing 50 μg/ml PI, and a baseline fluorescence reading was taken. Sequential readings were then taken at appropriate intervals over the 20 h observation period. The fraction of dead cells in each culture at a given time was calculated as: Fraction dead=(Ft−Fo)/FNMDA Where Ft=PI fluorescence at time t, F0=initial PI fluorescence at time zero and FNMDA=background subtracted PI fluorescence of identical cultures from the same dissection and plating, 20-24 h after a 60 min exposure to 1 mM NMDA at 37° C. Based on manual observations at the time of validation of this technique, this NMDA exposure routinely produced near complete neuronal death in each culture but had no effect on surrounding glia (also see (Bruno et al., 1994; David et al., 1996; Sattler et al., 1997)). Adding Triton X-100 (0.1%) to cultures treated in this manner produced an additional 10-15% increase in PI fluorescence due to permeabilization of non-neuronal cell membranes, consistent with a 10-15% glial component in the cultures.
# All experiments were performed at 37° C. Unless otherwise indicated, all solutions contained nimodipine (2 μM) and CNQX (10 μM) to restrict the actions of applied NMDA to NMDARs by preventing the secondary activation of other pathways (Sattler et al., 1998). In general, the cultures were washed ×2 with control solution and immediately stretched to 130% of their original length for 1 s. After the stretch, they were washed ×1 with control solution alone or challenged with an additional treatment (e.g., NMDA) and placed at 37° C. for 1 h. They were then washed ×1 with control solution and then with control solution containing 50 μg/ml PI to obtain a baseline reading. In pilot studies, baseline readings obtained at this stage were similar to those obtained by staining the cells with PI prior to stretch. As the stretch causes splashing of the bath solution, staining with PI after stretch reduced biohazard potential and artifacts associated with PI outside the culture well. Unstretched controls were manipulated identically to stretched cultures.
# [3] = test system: cortical neuronal cultures; assay: DNA fragmentation assays (TUNEL, DNA gel electrophoresis); assay type: cell-based, mouse
# Excerpt: DNA fragmentation was examined using the terminal deoxynucleotidyl transferase-mediated end nick labeling (TUNEL) method (Gavrieli et al., 1992; Didenko and Hornsby, 1996; Didenko et al., 1998) and by DNA agarose gel electrophoresis (Hill et al., 2000).
# TUNEL Assay: Nuclear DNA strand breaks were detected by enzymatically labeling free 3′-OH termini with modified nucleotides provided in the Apoptag kit (Intergen) using the manufacturer's instructions. Visualization of TUNEL-stained nuclei was achieved using an anti-digoxigenin antibody conjugated to a fluorescein or peroxidase reporter molecule (ApopTag Peroxidase Kits S7110 and S7100, respectively, Intergen). In fluorescence experiments, nuclei were counterstained using 5 ng/ml Hoechst 33258 (1:5000, Transduction Labs), and visualized using 465-495 nm excitation and 515-555 nm emission for fluorescein and 340 nm excitation and 510-40 nm emission for Hoechst. The number of TUNEL positive cells was expressed as a fraction of the total cell number in the field. In each culture, 4-8 random fields were quantified. Approximately 100-200 cells were counted per culture, and at least 3 experiments were performed for each set of counts.
# DNA Gel Electrophoresis: DNA laddering was evaluated as described elsewhere (Hill et al., 2000). In brief, all tissue was collected from each culture well and pelleted by centrifugation (1000 rpm; 1 min). The cells were digested for 2 h at 56° C. in buffer containing (in mM) 10 Tris pH 8.0, 2 EDTA pH8, 400 NaCl, 0.5% SDS, 1 mg/ml proteinase K. Digest solution was subjected to phenol/chloroform extraction and total DNA was precipitated from the aqueous layer with an equal volume of 100% ethanol. The DNA pellet was dried, dissolved in 50 μl ddH20 and kept overnight at 4° C. 10 μg DNA was prepared on a 2% agarose gel. Gels were stained with ethidium bromide and photographed.
# [4] = test system: cultured cortical neurons
# [5] = test system: transient middle cerebral artery occlusion; assay: Transient MCAO, dose study of infarct size; assay type: in vivo, Sprague-Dawley rats; conditions: 6 mg/kg 1 h before the stroke
# caspase 3 = assay: Active caspase 3 immunofluorescence; assay type: cell-based, mouse; conditions: positive control
# Protocol: Cultures were fixed with warm 4% paraformaldehyde and 4% sucrose in PBS for 20 min, permeabilized with 0.1% Triton X-100 for 10 min at 4° C., and blocked with 10% goat serum in PBS for 1 h at RT. Immunofluorescence was visualized with an inverted Nikon microscope using a 40× oil immersion lens. FITC, rhodamine and Hoechst were visualized using 465-495 excitation and 515-555 nm emission, 510-560 nm excitation and 590 nm emission, and 340 nm excitation and 510 nm emission, respectively. Active caspase 3 was labelled by incubating the cultures with a purified rabbit monoclonal anti-active caspase 3 antibody (1:300; BD PharMingen) and a fluorescein-conjugated goat anti-mouse IgG secondary antibody (1:500; Transduction Labs). Nitrotyrosine was labelled by incubating the cultures with a rabbit polyclonal α-nitrotyrosine primary antibody (1:300; Upstate) and a rhodamine-conjugated goat anti-rabbit IgG secondary antibody (1:500; Transduction Labs). AIF was labelled by incubating the cultures with an AIF antibody (1:200; Santa Cruz, (Zhang et al., 2002)) and a rhodamine-conjugated goat anti-mouse IgG secondary antibody (1:500; Transduction Labs). In some experiments, nuclei were counter-stained with Hoechst 33258 (1:5,000, Transduction Labs).
# NMDARs = assay: Whole cell patch-clamp recordings of NMDA currents in cultured neurons; assay type: cell-based, mouse; conditions: intracellular dialysis of 1 mM peptide, 300 μM NMDA
# traumatic brain injury = assay: Lateral fluid percussion injury model of TBI; assay type: in vivo, Sprague-Dawley rats; conditions: analyzed 24 h after injury
# Protocol: Adult male Sprague-Dawley rats weighing approximately 350 g were ordered from Charles River and anesthesia was induced using a gaseous mixture of 1:2 oxygen:nitrous oxide with 2% halothane. The halothane level was reduced to 1% during surgical manipulations and weights were recorded prior to preparatory surgery. The preparatory surgery for these experiments included the cannulation of the left femoral vein and a 5 mm diameter craniotomy. The venous cannula is sealed and tucked inside the animal whereupon the wound is sutured. The center of the craniotomy lies about 2.5 mm to the right of the sagittal suture, between the bregma and lambda. A modified Leur-loc is attached to the perimeter of the craniotomy with superglue (FIG. 28).
# Dental acrylic (GC America Inc, Alsip, Ill.) is applied around the modified Leur-loc to seal it into place. A small piece of gelfoam is placed into the opening and the skin is sutured over the entire setup. The animal is then returned to its cage. The following day, the animal is re-anesthetized, weighed, and its wound is re-opened. The gelfoam is removed and the animal is attached to the fluid percussion device via the modified Leur-loc. At this time, the animal is given a ˜20 ms saline injection at approximately 2.4 atmospheres (350 mV on the oscilloscope) using the fluid percussion injury device (Custom Design & Fabrication, Richmond, Va.) (FIG. 29).
# On occasion, the animal ceases spontaneous breathing following the injury and 1-2 chest compressions are required for resuscitation. The modified Leur-loc along with the dental acrylic is removed en bloc immediately following the injury. The animal is placed on 100% oxygen while its wound is cleaned and resealed with Vetbond tissue adhesive (3M Worldwide, Maplewood, Minn.). The rat's body temperature during the recovery time is maintained at 37° C. with a homeothermic warming blanket (Harvard Bioscience Inc, Holliston, Mass.). The amount of time necessary for the righting reflex to return is recorded and the animal is placed back into its cage. At 3 h post-injury, the animal is re-anesthetized and weighed again. The wound overlying the femoral cannula is opened and the cannula is cleaned out using heparinized saline. […] The cannula is sealed, tucked again into the animal, and the wound is re-sutured. At 24 h post-injury, the animal is re-anesthetized and weighed again. The rat is transcardially perfused using heparinized saline to clean out the cardiovascular system, followed by a 4% formalin fixative solution. The rat is decapitated and left in the fixative solution overnight. The brain is extracted the following day and processed. The volume of damaged brain (FIG. 26, right graph) is assessed according to the same methods as described in Aarts et al., 2002, for assessing stroke volumes. […]
# [6] = test system: cortical neuronal cultures; assay: Staurosporine-induced cell death in cortical cultures; assay type: cell-based, mouse; conditions: 200 μM for 48 h, staurosporine 1 μM
# [7] = 20 h post-insult, 200 μM MnTBAP or 100 μM L-NAME
compound,measurement,setting,value
"N#CC(C#N)=NNc1ccc(OC(F)(F)F)cc1 [FCCP, reference compound]",DHR fluorescence,reactive oxygen species; mitochondrial uncoupler,abolished all DHR fluorescence
same,mitochondrial depolarization (loss of TMRM fluorescence),[1],profound mitochondrial depolarization
"O=C(O)c1ccc(-c2c3nc(c(-c4ccc(C(=O)O)cc4)c4ccc([n-]4)c(-c4ccc(C(=O)O)cc4)c4nc(c(-c5ccc(C(=O)O)cc5)c5ccc2[n-]5)C=C4)C=C3)cc1.[Mn+3] [MnTBAP, manganese(III) tetrakis(4-benzoic acid) porphyrin]",cell death in stretched cells treated with 30 μM NMDA,"[2]; 30 min preincubation, 20 h",completely eliminated cell death
same,DNA laddering after stretch followed by NMDA,[3]; [7],virtually abolished
same,TUNEL staining after stretch followed by NMDA,[3]; [7],virtually abolished
same,DHR fluorescence (ROS production),reactive oxygen species; 200 μM pretreatment,reduced DHR fluorescence in all culture conditions
same,SNP toxicity,"[4]; SNP 300 μM, 200 μM MnTBAP pretreatment",reduced SNP toxicity to baseline
"CC(C(O)c1ccc(O)cc1)N1CCC(Cc2ccccc2)CC1 (centres unmarked) [Ro25-6981, reference compound]",infarct size versus control dose,[5],significant reduction in infarct size
N[C@@H](CSN=O)C(=O)O [S-nitrosocysteine],NO donor toxicity,[4],highly toxic
CN[C@@H]1C[C@H]2O[C@@](C)([C@@H]1OC)n1c3ccccc3c3c4c(c5c6ccccc6n2c5c31)C(=O)NC4 [staurosporine],DNA laddering by gel electrophoresis,[3]; 1 μM for 48 h,DNA ladders suggestive of intenucleosomal DNA fragmentation
same,TUNEL staining,[3]; 1 μM for 48 h,TUNEL staining was observed
same,active caspase 3 staining,caspase 3,stained for active caspase 3
CSKDTMEKSESL,peak NMDA current amplitudes,NMDARs,2540±281 pA
Tat-KLSSIETDV,total volume of injured brain,traumatic brain injury; 3 hours after TBI,significantly reduced
same,fraction of dead cells in cerebral cortex and hippocampus ipsilateral to the injury,traumatic brain injury; via femoral cannula 3 hours after TBI,markedly reduced fraction of dead cells
z-val-ala-asp-fluoromethylketone [z-VAD-FMK],cytotoxicity in stretched cultures with 30 μM NMDA,[2],no significant reduction in cytotoxicity
same,toxicity to unstretched cultures or stretch alone,[2],not toxic
same,attenuation of staurosporine-induced death,[6],significantly reduced
same,attenuation of staurosporine-induced death,[6]; listed as zvadFMK,47%
same,DNA fragmentation of neurons exposed to stretch+NMDA,[3]; DNA gel electrophoresis,did not reduce DNA fragmentation
